Reference: PMC12090182, “Repurposing of the RIPK1-Selective Benzo[1,4]oxazepin-4-one Scaffold for the Development of a Type III LIMK1/2 Inhibitor” (ACS Chemical Biology, 2025)

Assays:
Assay in all cases: biochemical
Assay type in all cases: binding
[1] = target: 468 kinases including some pathogenic mutants (Homo sapiens, UniProt Q9BQI3); conditions: EIF2AK1 (Entrez EIF2AK1), 100 nM; read-out: Percent Control
[2] = target: 468 kinases including some pathogenic mutants (Homo sapiens, UniProt P48729); conditions: CSNK1A1 (Entrez CSNK1A1), 100 nM; read-out: Percent Control
[3] = target: 468 kinases including some pathogenic mutants (Homo sapiens, UniProt Q9H0K1); conditions: SIK2 (Entrez SIK2), 1000 nM; read-out: Percent Control
Chain of 468 kinases including some pathogenic mutants (Homo sapiens, UniProt Q9H0K1) (Q9H0K1 whole entry, change not shown): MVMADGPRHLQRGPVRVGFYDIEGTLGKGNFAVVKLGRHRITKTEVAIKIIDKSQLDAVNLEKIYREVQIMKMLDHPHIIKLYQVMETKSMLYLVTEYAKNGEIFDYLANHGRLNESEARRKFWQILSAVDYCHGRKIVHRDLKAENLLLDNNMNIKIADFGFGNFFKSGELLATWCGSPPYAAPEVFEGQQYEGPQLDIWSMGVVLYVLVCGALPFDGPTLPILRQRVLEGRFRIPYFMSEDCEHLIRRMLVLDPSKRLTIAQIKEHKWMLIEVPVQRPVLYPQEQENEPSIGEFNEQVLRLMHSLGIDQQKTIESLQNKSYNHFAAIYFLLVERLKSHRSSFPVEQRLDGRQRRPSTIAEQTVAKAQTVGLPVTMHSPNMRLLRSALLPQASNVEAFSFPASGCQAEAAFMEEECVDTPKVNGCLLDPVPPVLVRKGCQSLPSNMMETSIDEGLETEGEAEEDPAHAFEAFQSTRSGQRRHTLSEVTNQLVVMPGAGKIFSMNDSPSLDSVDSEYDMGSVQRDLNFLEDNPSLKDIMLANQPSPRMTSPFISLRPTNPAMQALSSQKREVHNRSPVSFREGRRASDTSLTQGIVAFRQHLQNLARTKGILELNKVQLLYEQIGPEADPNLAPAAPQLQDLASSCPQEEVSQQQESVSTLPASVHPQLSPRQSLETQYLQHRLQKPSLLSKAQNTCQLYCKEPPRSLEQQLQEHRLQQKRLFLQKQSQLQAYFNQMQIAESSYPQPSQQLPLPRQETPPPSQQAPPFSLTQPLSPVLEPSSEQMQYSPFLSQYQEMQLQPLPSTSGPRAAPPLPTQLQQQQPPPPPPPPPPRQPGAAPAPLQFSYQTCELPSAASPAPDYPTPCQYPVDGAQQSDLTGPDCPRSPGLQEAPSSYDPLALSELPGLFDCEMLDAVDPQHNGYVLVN

[4] = target: 468 kinases including some pathogenic mutants (Homo sapiens, UniProt Q9UBE8); conditions: NLK (Entrez NLK), 100 nM; read-out: Percent Control
[5] = target: 468 kinases including some pathogenic mutants (Homo sapiens, UniProt Q8WXR4); conditions: MYO3B (Entrez MYO3B), 100 nM; read-out: Percent Control
[6] = target: 468 kinases including some pathogenic mutants (Homo sapiens, UniProt P42336, M1043I); conditions: read-out: Percent Control
Chain of 468 kinases including some pathogenic mutants (Homo sapiens, UniProt P42336, M1043I) (P42336 whole entry M1043I): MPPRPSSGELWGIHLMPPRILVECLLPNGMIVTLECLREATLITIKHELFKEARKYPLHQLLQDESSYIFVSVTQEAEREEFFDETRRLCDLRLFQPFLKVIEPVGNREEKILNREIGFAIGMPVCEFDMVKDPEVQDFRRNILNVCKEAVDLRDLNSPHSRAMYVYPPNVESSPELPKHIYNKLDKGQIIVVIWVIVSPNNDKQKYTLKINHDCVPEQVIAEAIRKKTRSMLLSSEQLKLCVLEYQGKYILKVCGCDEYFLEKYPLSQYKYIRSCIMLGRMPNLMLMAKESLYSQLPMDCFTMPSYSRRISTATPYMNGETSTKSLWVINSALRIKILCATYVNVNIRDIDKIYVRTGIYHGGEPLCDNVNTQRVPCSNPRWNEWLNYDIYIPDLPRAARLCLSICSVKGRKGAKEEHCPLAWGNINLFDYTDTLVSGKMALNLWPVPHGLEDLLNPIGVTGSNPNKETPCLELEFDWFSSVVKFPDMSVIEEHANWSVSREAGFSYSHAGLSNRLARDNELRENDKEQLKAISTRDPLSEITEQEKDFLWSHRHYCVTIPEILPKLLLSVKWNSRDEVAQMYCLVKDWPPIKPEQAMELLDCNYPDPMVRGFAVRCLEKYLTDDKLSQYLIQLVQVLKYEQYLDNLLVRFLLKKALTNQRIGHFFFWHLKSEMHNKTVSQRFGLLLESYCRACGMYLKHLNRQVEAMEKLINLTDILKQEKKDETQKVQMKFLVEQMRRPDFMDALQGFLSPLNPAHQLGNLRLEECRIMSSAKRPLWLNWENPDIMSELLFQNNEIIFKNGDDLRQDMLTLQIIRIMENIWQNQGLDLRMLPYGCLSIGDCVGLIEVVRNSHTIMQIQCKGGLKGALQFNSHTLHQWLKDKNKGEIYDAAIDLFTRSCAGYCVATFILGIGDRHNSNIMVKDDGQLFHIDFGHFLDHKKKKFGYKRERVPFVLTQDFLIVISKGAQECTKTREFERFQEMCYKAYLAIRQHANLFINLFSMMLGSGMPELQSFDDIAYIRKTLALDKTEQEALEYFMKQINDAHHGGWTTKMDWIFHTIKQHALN

[7] = target: 468 kinases including some pathogenic mutants (Homo sapiens, UniProt P20794); conditions: MAK (Entrez MAK), 1000 nM; read-out: Percent Control
[8] = target: 468 kinases including some pathogenic mutants (Homo sapiens, UniProt O75716); conditions: STK16 (Entrez STK16), 1000 nM; read-out: Percent Control
Chain of 468 kinases including some pathogenic mutants (Homo sapiens, UniProt O75716) (O75716 whole entry, change not shown): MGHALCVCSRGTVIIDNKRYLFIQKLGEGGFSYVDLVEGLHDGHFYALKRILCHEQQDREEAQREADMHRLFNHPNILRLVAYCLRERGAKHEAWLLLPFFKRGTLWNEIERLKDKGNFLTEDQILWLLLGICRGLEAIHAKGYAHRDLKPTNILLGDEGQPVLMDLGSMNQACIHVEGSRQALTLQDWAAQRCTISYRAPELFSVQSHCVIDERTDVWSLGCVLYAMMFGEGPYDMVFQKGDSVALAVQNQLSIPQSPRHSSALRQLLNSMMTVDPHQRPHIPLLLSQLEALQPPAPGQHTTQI

[9] = target: 468 kinases including some pathogenic mutants (Homo sapiens, UniProt Q14164); conditions: IKK-epsilon (Entrez IKBKE), 100 nM; read-out: Percent Control
[10] = target: 468 kinases including some pathogenic mutants (Homo sapiens, UniProt Q02763); conditions: TIE2 (Entrez TEK), 1000 nM; read-out: Percent Control
[11] = target: 468 kinases including some pathogenic mutants (Homo sapiens, UniProt P17948); conditions: FLT1 (Entrez FLT1), 100 nM; read-out: Percent Control
[12] = target: 468 kinases including some pathogenic mutants (Homo sapiens, UniProt O60674); conditions: JAK2(JH1domain-catalytic) (Entrez JAK2), 1000 nM; read-out: Percent Control
[13] = target: 468 kinases including some pathogenic mutants (Homo sapiens, UniProt Q9Y2U5); conditions: MAP3K2 (Entrez MAP3K2), 1000 nM; read-out: Percent Control
Chain of 468 kinases including some pathogenic mutants (Homo sapiens, UniProt Q9Y2U5) (Q9Y2U5 whole entry, change not shown): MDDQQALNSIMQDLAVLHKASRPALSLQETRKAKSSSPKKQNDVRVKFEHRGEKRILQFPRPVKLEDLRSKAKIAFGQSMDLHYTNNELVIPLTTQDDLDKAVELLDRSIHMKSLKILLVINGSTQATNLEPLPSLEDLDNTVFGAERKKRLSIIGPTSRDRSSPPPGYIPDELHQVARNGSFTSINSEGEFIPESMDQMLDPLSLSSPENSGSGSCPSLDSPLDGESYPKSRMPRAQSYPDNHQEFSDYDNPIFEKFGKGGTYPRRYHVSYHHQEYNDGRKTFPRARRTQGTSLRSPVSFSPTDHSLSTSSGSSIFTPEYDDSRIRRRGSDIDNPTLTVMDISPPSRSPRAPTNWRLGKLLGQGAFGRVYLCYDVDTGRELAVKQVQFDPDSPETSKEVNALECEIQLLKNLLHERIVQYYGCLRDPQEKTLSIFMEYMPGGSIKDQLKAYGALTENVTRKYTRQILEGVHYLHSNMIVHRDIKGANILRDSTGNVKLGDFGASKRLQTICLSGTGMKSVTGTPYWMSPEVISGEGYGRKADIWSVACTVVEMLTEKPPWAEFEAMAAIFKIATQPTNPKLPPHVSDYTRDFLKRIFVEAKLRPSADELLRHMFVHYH

[14] = target: 468 kinases including some pathogenic mutants (Homo sapiens, UniProt P06241); conditions: FYN (Entrez FYN), 100 nM; read-out: Percent Control
[15] = target: 468 kinases including some pathogenic mutants (Homo sapiens, UniProt Q9UPE1); conditions: SRPK3 (Entrez SRPK3), 1000 nM; read-out: Percent Control
Chain of 468 kinases including some pathogenic mutants (Homo sapiens, UniProt Q9UPE1) (Q9UPE1 whole entry, change not shown): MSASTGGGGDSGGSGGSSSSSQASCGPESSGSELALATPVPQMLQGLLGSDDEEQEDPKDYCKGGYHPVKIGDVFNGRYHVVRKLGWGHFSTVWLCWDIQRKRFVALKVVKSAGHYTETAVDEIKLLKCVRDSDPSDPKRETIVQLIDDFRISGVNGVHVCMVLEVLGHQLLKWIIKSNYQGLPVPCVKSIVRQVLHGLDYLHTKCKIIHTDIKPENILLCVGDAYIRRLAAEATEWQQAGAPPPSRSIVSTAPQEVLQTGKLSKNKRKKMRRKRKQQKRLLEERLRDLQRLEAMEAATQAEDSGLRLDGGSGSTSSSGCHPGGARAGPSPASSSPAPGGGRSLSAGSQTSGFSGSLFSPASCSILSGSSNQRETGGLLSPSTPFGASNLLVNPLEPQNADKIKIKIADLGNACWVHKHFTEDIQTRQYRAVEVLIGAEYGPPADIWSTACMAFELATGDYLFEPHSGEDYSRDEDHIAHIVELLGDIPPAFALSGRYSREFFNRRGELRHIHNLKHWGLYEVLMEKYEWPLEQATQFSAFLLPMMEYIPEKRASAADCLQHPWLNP

[16] = target: 468 kinases including some pathogenic mutants (Homo sapiens, UniProt Q8IW41); conditions: MAPKAPK5 (Entrez MAPKAPK5), 1000 nM; read-out: Percent Control
[17] = target: 468 kinases including some pathogenic mutants (Homo sapiens, UniProt P46734); conditions: MEK3 (Entrez MAP2K3), 100 nM; read-out: Percent Control
Chain of 468 kinases including some pathogenic mutants (Homo sapiens, UniProt P46734) (P46734 whole entry, change not shown): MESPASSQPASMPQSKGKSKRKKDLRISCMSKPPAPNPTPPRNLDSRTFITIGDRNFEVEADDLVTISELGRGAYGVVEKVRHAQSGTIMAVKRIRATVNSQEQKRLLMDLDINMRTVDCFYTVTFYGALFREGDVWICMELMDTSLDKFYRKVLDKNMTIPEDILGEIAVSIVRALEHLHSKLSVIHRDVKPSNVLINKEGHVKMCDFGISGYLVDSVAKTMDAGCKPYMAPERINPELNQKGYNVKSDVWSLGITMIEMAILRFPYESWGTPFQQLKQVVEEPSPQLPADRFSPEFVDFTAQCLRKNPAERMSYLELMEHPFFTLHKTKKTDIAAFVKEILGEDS

[18] = target: 468 kinases including some pathogenic mutants (Homo sapiens, UniProt P31749); conditions: AKT1 (Entrez AKT1), 100 nM; read-out: Percent Control
[19] = target: 468 kinases including some pathogenic mutants (Homo sapiens, UniProt P36888, D835Y); conditions: read-out: Percent Control
[20] = target: 468 kinases including some pathogenic mutants (Homo sapiens, UniProt P42336, E545K); conditions: read-out: Percent Control
[21] = target: 468 kinases including some pathogenic mutants (Homo sapiens, UniProt Q8N5S9); conditions: CAMKK1 (Entrez CAMKK1), 100 nM; read-out: Percent Control
[22] = target: 468 kinases including some pathogenic mutants (Homo sapiens, UniProt P04049); conditions: RAF1 (Entrez RAF1), 1000 nM; read-out: Percent Control
[23] = target: 468 kinases including some pathogenic mutants (Homo sapiens, UniProt Q2M2I8); conditions: AAK1 (Entrez AAK1), 100 nM; read-out: Percent Control
[24] = target: 468 kinases including some pathogenic mutants (Homo sapiens, UniProt Q13470); conditions: TNK1 (Entrez TNK1), 100 nM; read-out: Percent Control
[25] = target: 468 kinases including some pathogenic mutants (Homo sapiens, UniProt Q96SB4); conditions: SRPK1 (Entrez SRPK1), 100 nM; read-out: Percent Control
Chain of 468 kinases including some pathogenic mutants (Homo sapiens, UniProt Q96SB4) (Q96SB4 whole entry, stated change not applied): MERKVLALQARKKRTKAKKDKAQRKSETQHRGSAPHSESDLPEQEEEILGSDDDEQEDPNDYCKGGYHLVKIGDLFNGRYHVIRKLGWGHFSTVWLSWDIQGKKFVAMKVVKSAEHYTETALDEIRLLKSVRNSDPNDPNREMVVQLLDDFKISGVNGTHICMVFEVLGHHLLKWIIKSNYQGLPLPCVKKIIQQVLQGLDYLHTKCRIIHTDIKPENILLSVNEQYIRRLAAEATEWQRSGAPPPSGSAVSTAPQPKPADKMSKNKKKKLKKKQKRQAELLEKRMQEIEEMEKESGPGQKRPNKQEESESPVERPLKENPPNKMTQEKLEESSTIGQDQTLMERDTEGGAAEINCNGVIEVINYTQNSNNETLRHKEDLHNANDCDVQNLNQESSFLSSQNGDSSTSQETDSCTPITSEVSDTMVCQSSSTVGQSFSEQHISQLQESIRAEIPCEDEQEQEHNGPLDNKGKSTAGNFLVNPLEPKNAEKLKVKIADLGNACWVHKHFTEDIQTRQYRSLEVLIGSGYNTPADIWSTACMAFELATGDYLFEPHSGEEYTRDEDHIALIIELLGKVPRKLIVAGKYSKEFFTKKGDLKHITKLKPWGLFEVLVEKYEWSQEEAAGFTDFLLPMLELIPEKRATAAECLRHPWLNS

[26] = target: 468 kinases including some pathogenic mutants (Homo sapiens, UniProt P00519, Y253F); conditions: read-out: Percent Control
[27] = target: 468 kinases including some pathogenic mutants (Homo sapiens, UniProt P53779); conditions: JNK3 (Entrez MAPK10), 100 nM; read-out: Percent Control
[28] = target: 468 kinases including some pathogenic mutants (Homo sapiens, UniProt P51955); conditions: NEK2 (Entrez NEK2), 1000 nM; read-out: Percent Control
Chain of 468 kinases including some pathogenic mutants (Homo sapiens, UniProt P51955) (P51955 whole entry, change not shown): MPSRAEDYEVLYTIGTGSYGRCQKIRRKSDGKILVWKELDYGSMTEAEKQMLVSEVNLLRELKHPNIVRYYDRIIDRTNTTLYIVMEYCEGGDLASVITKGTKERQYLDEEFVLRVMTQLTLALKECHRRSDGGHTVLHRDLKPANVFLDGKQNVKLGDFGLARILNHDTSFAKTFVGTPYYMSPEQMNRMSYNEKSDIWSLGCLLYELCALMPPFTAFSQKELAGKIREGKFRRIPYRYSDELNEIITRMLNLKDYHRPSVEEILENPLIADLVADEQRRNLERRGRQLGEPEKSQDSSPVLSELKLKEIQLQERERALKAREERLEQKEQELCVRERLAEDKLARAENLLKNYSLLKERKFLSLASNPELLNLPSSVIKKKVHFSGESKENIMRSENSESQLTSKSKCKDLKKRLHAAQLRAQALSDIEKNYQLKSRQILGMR

[29] = target: 468 kinases including some pathogenic mutants (Homo sapiens, UniProt P53778); conditions: p38-gamma (Entrez MAPK12), 100 nM; read-out: Percent Control

SMILES: CN1C(=O)[C@@H](N2CCc3c(nn(Cc4ccccc4)c3C(N)=O)C2=O)COc2cc(Cl)ccc21 [Compound 10, (S)-2-benzyl-6-(8-chloro-5-methyl-4-oxo-2,3,4,5-tetrahydrobenzo[b][1,4]oxazepin-3-yl)-7-oxo-4,5,6,7-tetrahydro-2H-pyrazolo[3,4-c]pyridine-3-carboxamide]
- remaining activity at 0.1 µM [1]: 100%
- remaining activity at 0.1 µM [2]: 73%
- remaining activity at 1 µM [3]: 100%
- remaining activity at 0.1 µM [4]: 91%
- remaining activity at 0.1 µM [5]: 97%
- remaining activity at 0.1 µM [6]: 78%
- remaining activity at 1 µM [7]: 100%
- remaining activity at 1 µM [8]: 100%
- remaining activity at 0.1 µM [9]: 61%
- remaining activity at 1 µM [10]: 100%
- remaining activity at 0.1 µM [11]: 78%
- remaining activity at 1 µM [12]: 100%
- remaining activity at 1 µM [13]: 100%
- remaining activity at 0.1 µM [14]: 71%
- remaining activity at 1 µM [15]: 100%
- remaining activity at 1 µM [16]: 100%
- remaining activity at 0.1 µM [17]: 85%
- remaining activity at 0.1 µM [18]: 87%
- remaining activity at 0.1 µM [19]: 95%
- remaining activity at 0.1 µM [20]: 75%
- remaining activity at 0.1 µM [21]: 70%
- remaining activity at 1 µM [22]: 100%
- remaining activity at 0.1 µM [23]: 72%
- remaining activity at 0.1 µM [24]: 78%
- remaining activity at 0.1 µM [25]: 100%
- remaining activity at 0.1 µM [26]: 76%
- remaining activity at 0.1 µM [27]: 77%
- remaining activity at 1 µM [28]: 100%
- remaining activity at 0.1 µM [29]: 65%
